# Where two headings read alike, the source gives them in different places.
# Key:
# [1] = tested on: MCF-7; test: Inhibition of cells growth by colorimetric assay (SRB), MCF-7; type: cell-based; conditions: for CC50 / GI50: Homo sapiens; for CC50: MCF7, 48 h, read-out: MCF LC50; for GI50: MCF7, read-out: MCF GI50; for GI50 / MCF TGI: 48 hours exposure
# Procedure: (§1) 2°.—Inhibition of Cells Growth by Colorimetric Assay.
# (§2) A colorimetric type of assay, using sulforhodamine B (SRB) reaction has been adapted for a quantitative measurement of cell growth and viability [following the technique described by Philip Skehan, et al. (1990), New colorimetric cytotoxicity assay for anticancer drug screening, J. Natl. Cancer Inst., 82:1107-1112]
# (§3) This form of the assay employs 96 well cell culture microplates of 9 mm diameter (Faircloth, 1988; Mosmann, 1983). Most of the cell lines are obtained from American Type Culture Collection (ATCC) derived from different human cancer types.
# (§4) Cells are maintained in RPMI 1640 10% FBS, supplemented with 0.1 g/l penicillin and 0.1 g/l streptomycin sulfate and then incubated at 37° C., 5% CO2 and 98% humidity. For the experiments, cells were harvested from subconfluent cultures using trypsin and resuspended in fresh medium before plating.
# (§5) Cells are seeded in 96 well microtiter plates, at 5×10^3 cells per well in aliquots of 195 μl medium, and they are allowed to attach to the plate surface by growing in drug free medium for 18 hours. Afterward, samples are added in aliquots of 5 μl in a ranging from 10 to 10^−8 μg/ml, dissolved in DMSO/EtOH/PBS (0.5:0.5:99). After 48 hours exposure, the antitumor effect are measured by the SRB methodology: cells are fixed by adding 50 μl of cold 50% (wt/vol) trichloroacetic acid (TCA) and incubating for 60 minutes at 4° C. Plates are washed with deionized water and dried. One hundred μl of SRB solution (0.4% wt/vol in 1% acetic acid) is added to each microtiter well and incubated for 10 minutes at room temperature. Unbound SRB is removed by washing with 1% acetic acid. Plates are air dried and bound stain is solubilized with Tris buffer. Optical densities are read on a automated spectrophotometric plate reader at a single wavelength of 490 nm.
# (§6) The values for mean+/−SD of data from triplicate wells are calculated. Some parameters for cellular responses can be calculated: GI=growth inhibition, TGI=total growth inhibition (cytostatic effect) and LC=cell killing (cytotoxic effect).
# (§7) Obtained results may predict the usefulness of a certain drug as a potential cancer treatment. For this technique, compounds which show GI50 values smaller than 10 μg/ml are selected to continue with further studies. GI50's data allow to predict that not only could a drug be cystostatic, but also it could have a potential in terms of tumor reduction.
# [2] = tested on: HT-29; test: Inhibition of cells growth by colorimetric assay (SRB), HT-29; type: cell-based; conditions: for GI50 / LC50 (concentration for 50% cell killing): Homo sapiens, HT-29, 48 h; for GI50: read-out: HT-29 GI50
# Outline: (§8)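 SRB read-out at 490 nm after 48 h drug exposure (10 to 10^−8 μg/ml) of cells plated at 5×10^3/well and attached 18 h in drug-free RPMI 1640/10% FBS. Triplicate means give GI, TGI (cytostatic) and LC (cytotoxic).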
# [3] = tested on: SK-MEL-28; test: Inhibition of cells growth by colorimetric assay (SRB), SK-MEL-28; type: cell-based; conditions: for GI50 / CC50: Homo sapiens, SK-MEL-28, 48 h; for GI50: read-out: MEL-28 GI50
# Outline: as §8
# [4] = tested on: A-498; test: Inhibition of cells growth by colorimetric assay (SRB), A-498; type: cell-based; conditions: for LC50 / GI50: Homo sapiens; for LC50: A498, 48 h, read-out: A-498 LC50; for GI50: A498, read-out: A-498 GI50; for GI50 / A-498 TGI: 48 hours exposure
# Procedure: as §1, §2, §3, §4, §5, §6, §7
# [5] = tested on: SW620; test: Inhibition of cells growth by colorimetric assay (SRB), SW620; type: cell-based; conditions: for LC50 / GI50: Homo sapiens; for LC50: SW-620, 48 h, read-out: SW-620 LC50; for GI50 / SW-620 TGI: 48 hours exposure; for GI50: read-out: SW-620 GI50
# Procedure: as §1, §2, §3, §4, §5, §6, §7
# [6] = tested on: MDA-MB-231; test: Inhibition of cells growth by colorimetric assay (SRB), MDA-MB-231; type: cell-based; conditions: for CC50 / GI50: Homo sapiens; for CC50: MDA-MB-231, 48 h, read-out: MB-231 LC50; for GI50: MDA-MB-231, read-out: MB-231 GI50; for GI50 / MB-231 TGI: 48 hours exposure
# Procedure: as §1, §2, §3, §4, §5, §6, §7
# [7] = tested on: DU-145; test: Inhibition of cells growth by colorimetric assay (SRB), DU-145; type: cell-based; conditions: for GI50 / CC50: Homo sapiens, DU-145, 48 h; for GI50: read-out: DU-145 GI50
# Outline: as §8
# [8] = tested on: A-549; test: Inhibition of cells growth by colorimetric assay (SRB), A-549; type: cell-based; conditions: for GI50 / LC50 (concentration for 50% cell killing): Homo sapiens, A549, 48 h; for GI50: read-out: A-549 GI50
# Outline: as §8
# [9] = tested on: Kidney
# From the text: (§9) Toxicity was asssessed by the methods reported in Toxicology in Vitro, 15 (2001) 571-577, J. Luber Narod et al.: “Evaluation of the use of in vitro methodolodies as tools for screening new compounds for potential in vivo toxicity”.
# [10] = tested on: Myelo
# From the text: as §9
# [11] = tested on: Liver
# From the text: as §9
# [12] = tested on: Heart
# From the text: as §9
# [13] = tested on: Skeletal
# From the text: as §9
compound,measurement,setting,value
COc1cc2c(cc1O)CCN(C)[C@]21CS[C@@H]2c3c(OC(C)=O)c(C)c4c(c3[C@H](COC1=O)N1C2[C@@H]2N[C@@H](Cc3cc(C)c(OC)c(O)c32)[C@@H]1C#N)OCO4 (some centres unmarked) [Compound 209],CC50,[1],5.19 nM
same,GI50,[1]; SRB assay,0.26 nM
same,MCF TGI,[1]; SRB assay,7.79E-10
same,GI50,"[2]; SRB assay, 48 hours exposure",0.0779 nM
same,LC50 (concentration for 50% cell killing),"[2]; read-out: HT-29 LC50, SRB assay, 48 hours exposure",1.17 nM
same,HT-29 TGI,"[2]; SRB assay, 48 hours exposure",3.90E-10
same,GI50,"[3]; SRB assay, 48 hours exposure",0.0649 nM
same,CC50,"[3]; read-out: MEL-28 LC50, SRB assay, 48 hours exposure",1.3 nM
same,MEL-28 TGI,"[3]; SRB assay, 48 hours exposure",2.60E-10
same,LC50,[4],1.3 nM
same,GI50,[4]; SRB assay,0.13 nM
same,A-498 TGI,[4]; SRB assay,3.90E-10
same,LC50,[5],1.3 nM
same,GI50,"[5]; SW-620, SRB assay",0.0779 nM
same,SW-620 TGI,[5]; SRB assay,3.90E-10
same,CC50,[6],1.3 nM
same,GI50,[6]; SRB assay,0.013 nM
same,MB-231 TGI,[6]; SRB assay,2.60E-10
same,GI50,"[7]; SRB assay, 48 hours exposure",0.013 nM
same,CC50,"[7]; read-out: DU-145 LC50, SRB assay, 48 hours exposure",0.13 nM
same,DU-145 TGI,"[7]; SRB assay, 48 hours exposure",3.90E-11
same,GI50,"[8]; SRB assay, 48 hours exposure",0.0909 nM
same,LC50 (concentration for 50% cell killing),"[8]; read-out: A-549 LC50, SRB assay, 48 hours exposure",1.17 nM
same,A-549 TGI,"[8]; SRB assay, 48 hours exposure",3.90E-10
COc1cc2c(cc1O)CCN[C@]21CS[C@@H]2c3c(OC(C)=O)c(C)c4c(c3[C@H](COC1=O)N1C2[C@H]2c3c(cc(C)c(OC)c3OC(=O)OC(C)(C)C)C[C@@H]([C@@H]1O)N2C)OCO4 (some centres unmarked) [Compound 97],Toxicity Data Kidney,[9],1.43E-08
same,Toxicity Data Myelo,[10],1.77E-08
same,CC50,[1],11.6 nM
same,GI50,"[1]; MCF, SRB",1.16 nM
same,MCF TGI,"[1]; MCF, SRB",3.48E-09
same,HT-29 TGI,"[2]; HT-29, SRB, 48 hours exposure",2.32E-09
same,GI50,[2],0.928 nM
same,LC50 (concentration for 50% cell killing),"[2]; read-out: HT-29 LC50, HT-29, SRB, 48 hours exposure",9.28 nM
same,GI50,"[3]; MEL-28, SRB, 48 hours exposure",0.348 nM
same,CC50,"[3]; read-out: MEL-28 LC50, MEL-28, SRB, 48 hours exposure",3.48 nM
same,MEL-28 TGI,"[3]; MEL-28, SRB, 48 hours exposure",9.28E-10
same,A-498 TGI,"[4]; A-498, SRB",2.32E-09
same,LC50,[4],9.28 nM
same,GI50,"[4]; A-498, SRB",0.58 nM
same,Toxicity Data Liver,[11],1.57E-08
same,LC50,[5],9.28 nM
same,GI50,"[5]; SW-620, SRB",0.58 nM
same,SW-620 TGI,"[5]; SW-620, SRB",2.32E-09
same,CC50,[6],34.8 nM
same,GI50,"[6]; MB-231, SRB",0.348 nM
same,MB-231 TGI,"[6]; MB-231, SRB",6.96E-10
same,DU-145 TGI,"[7]; DU-145, SRB, 48 hours exposure",3.48E-10
same,GI50,"[7]; DU-145, SRB, 48 hours exposure",0.232 nM
same,CC50,"[7]; read-out: DU-145 LC50, DU-145, SRB, 48 hours exposure",0.928 nM
same,A-549 TGI,"[8]; A-549, SRB, 48 hours exposure",9.28E-10
same,GI50,"[8]; A-549, SRB, 48 hours exposure",0.348 nM
same,LC50 (concentration for 50% cell killing),"[8]; read-out: A-549 LC50, A-549, SRB, 48 hours exposure",3.48 nM
same,Toxicity Data Heart,[12],9.63E-08
same,Toxicity Data Skeletal,[13],4.62E-09
